In test [1] the target is T1, SdiA (Salmonella enterica subsp. enterica serovar Typhimurium, UniProt O66040). The test can be described thus: S. Typhimurium-pJNS25 SdiA reporter, agonism (luminescence). Format: cell-based. Conditions: for Emax: read-out: activation (%); for EC50: agonism dose–response. The source says: (§1) Biological assays for SdiA activity. Cell-based reporter strains that rely on detecting the transcriptional activity of LuxR-type receptors are commonly used to assess the activity of exogenous ligands. We used the S. Typhimurium-pJNS25 reporter strain constructed by Smith and Ahmer and also used by Janssens et al. to examine SdiA activity. This strain naturally produces SdiA and contains a reporter plasmid with the promoter region for srgE fused to the luxABCDE operon of V. fischeri (see Experimental section for details of all strains and plasmids). SdiA activity is thus reported by the production of luciferase and resulting bioluminescence. We also prepared an SdiA reporter in E. coli (JLD271-pJN105SE-pSC11SE) to examine S. Typhimurium SdiA activity in an alternate background and with a different reporter gene output. […] This reporter construct uses an arabinose inducible promoter to produce S. Typhimurium SdiA and the promoter region for srgE fused to lacZ to report SdiA activity. SdiA activity is then measured using standard β-galactosidase assays. In both reporter strains, signal was normalized to the difference between the positive control (10 μM OOHL) and the negative control (1% DMSO; no compound).
(§2) Salmonella SdiA reporter assay. S. Typhimurium-pJNS25 was grown 16–18 h overnight in LB, diluted 1:100 in fresh LB medium, and then incubated for 6 h at 37 °C with shaking at 200 rpm in the presence of compounds (1% DMSO). […] All compounds were screened at 100 μM and 1 μM in triplicate in agonism and antagonism assays. […] Dose–response analyses were performed by preparing dilutions of compounds in DMSO and testing each concentration in the agonism or antagonism assays. Competition dose–response assays (data in Figure 5) were performed in the same manner as the antagonism assays, except instead of OOHL being added to the subculture, the antagonist being tested was added. Non-linear regression curve fits were generated using GraphPad Prism software (version 6) using variable slope (four parameter) dose–response analysis.

For test [2], the target named is T1, SdiA. In words: S. Typhimurium-pJNS25 SdiA reporter, competitive antagonism against 10 nM L-OOHL. The test is classed as cell-based. As to conditions: for inhibition at 1 µM: read-out: Antagonism 1 μM Inhibition (%); for inhibition at 100 µM: read-out: Antagonism 100 μM Inhibition (%); for Emax: maximal inhibition, 100% minus lowest % activity in presence of 10 nM L-OOHL (2), read-out: inhibition (%).
From the text: as §1, §2

[3] abbreviates: 1 μM compound, average ± STD, change in activity from 10 nM 2 (OOHL).
Setting [4] is: 100 μM compound, average ± STD, change in activity from 10 nM 2 (OOHL).
Where [5] appears, read: maximal activation of the antagonists (partial agonism), Table 3.
Where [6] appears, read: maximal activity (efficacy) from agonism dose–response, 10 μM OOHL = 100%, DMSO = 0%.

Here are results for 16 compounds from article PMC6204753, “Non-native autoinducer analogs capable of modulating the SdiA quorum sensing receptor in Salmonella enterica serovar Typhimurium” (Beilstein Journal of Organic Chemistry, 2018).

Entries after “also recorded” stand apart in the source; their conditions may differ. Like-named read-outs stand apart in the source and are kept apart here. Where only a bound is given, the exact number is not on record here.

Broadly, the inhibition is the drop in the measured response relative to a control, in per cent. The term EC50 denotes the concentration at which the effect is half-maximal. By IC50 is commonly meant the concentration that inhibits the measured activity by half.

T1 sequence (O66040 entry or part of it): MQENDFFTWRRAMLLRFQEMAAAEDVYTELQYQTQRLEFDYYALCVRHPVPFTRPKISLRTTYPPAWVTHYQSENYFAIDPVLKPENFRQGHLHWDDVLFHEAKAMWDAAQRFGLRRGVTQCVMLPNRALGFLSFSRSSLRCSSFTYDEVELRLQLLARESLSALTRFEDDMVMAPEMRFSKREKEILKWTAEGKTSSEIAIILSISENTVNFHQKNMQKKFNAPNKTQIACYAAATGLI

As to `CCCCCCCC(=O)OCC(O)CO` (racemic) [compound 23, 1-octanoyl-rac-glycerol, reference compound], the “activity in the SdiA reporter assay (in words)” value on SdiA [1] (S. Typhimurium reporter) is recorded as “no agonism; also recorded: no activity”. The inhibition at 1 µM on SdiA [2] (setting [3]) was found to be 8 ± 14%. The inhibition at 100 µM at SdiA [2] (setting [4]) was found to be 12 ± 4%.
For `O=C(Oc1c(Br)cc(Br)cc1CNC(=O)c1ccccc1[N+](=O)[O-])c1ccccc1Cl` [19R, reference compound], the figures for the Emax on SdiA [1] (setting [5]) and at SdiA [2] were 40% and 44%, respectively. Further, at SdiA [2] (setting [3]), the inhibition at 1 µM was found to be 43 ± 10%. Further, the inhibition at 100 µM at SdiA [2] (setting [4]) is 38 ± 11%.
Turning to `CCCC(=O)N[C@H]1CCOC1=O` [A1, reference compound], on SdiA [1] (read-out: EC50), the EC50 was found to be 578 nM. In addition, the “activation (%)” value on SdiA [1] (setting [6]) came to 100%. Further, at SdiA [2] (setting [3]), the “Antagonism 1 μM Inhibition (%)” value worked out at 7 ± 5%. In addition, at SdiA [2] (setting [4]), the “Antagonism 100 μM Inhibition (%)” value is recorded as -10 ± 11%.
In the case of `CCCCCC(=O)N[C@H]1CCOC1=O` [A2], at SdiA [1] (read-out: EC50), the EC50 was 20.9 nM. For the same compound, the Emax at SdiA [1] (setting [6]) turned out to be 81%. The inhibition at 1 µM on SdiA [2] (setting [3]) amounted to 15 ± 4%. At SdiA [2] (setting [4]), the inhibition at 100 µM amounted to 3 ± 1%.
In the case of `CCCCCCCC(=O)N[C@H]1CCOC1=O` [A3], the EC50 on SdiA [1] (read-out: EC50) was found to be 18.1 nM. The “Antagonism 1 μM Inhibition (%)” value on SdiA [2] (setting [3]) was 10 ± 8%. Also, on SdiA [2] (setting [4]), the “Antagonism 100 μM Inhibition (%)” value was found to be 13 ± 14%.
Take `CCCCCCCCCCCC(=O)N[C@H]1CCOC1=O` [A5]: the Emax at SdiA [1] (setting [5]) is 57%; on SdiA [2], over 50%. Further, the inhibition at 1 µM on SdiA [2] (setting [3]) is 17 ± 10%. Further, the inhibition at 100 µM on SdiA [2] (setting [4]) is 43 ± 4%.
Take `CCCCCCCCCCCCCCCC(=O)N[C@H]1CCOC1=O` [A6]: the Emax is 20% on SdiA [1] (setting [5]) and over 50% at SdiA [2]. Also, the inhibition at 1 µM at SdiA [2] (setting [3]) was 17 ± 12%. Besides, on SdiA [2] (setting [4]), the inhibition at 100 µM was determined as 38 ± 5%. At SdiA [2] (against 10 nM L-OOHL (EC90)), this compound yielded an IC50 of 1750 nM.
On to `CCCCCCCC(=O)CC(=O)N[C@H]1CCOC1=O` [A7], for which the EC50 at SdiA [1] (read-out: EC50) worked out at 26.6 nM. On SdiA [1] (setting [6]), the Emax was 85%. The inhibition at 1 µM on SdiA [2] (setting [3]) is -4 ± 19%. Besides, on SdiA [2] (setting [4]), the inhibition at 100 µM is -2 ± 10%.
As for `[N-]=[N+]=NCCCCCCCCCCCC(=O)N[C@H]1CCOC1=O` [Az-11], on SdiA [1], a half-maximal response (EC50) required 125 nM and the Emax amounted to 110%. Moreover, at SdiA [1] (setting [6]), the “activation (%)” value was “fully agonize”. Also, the inhibition at 1 µM on SdiA [2] (setting [3]) was -1 ± 17%. Moreover, the inhibition at 100 µM on SdiA [2] (setting [4]) was -35 ± 6%.
With `O=C(Cc1ccc(Br)cc1)N[C@@H]1CCOC1=O` [B4], the Emax on SdiA [1] (setting [5]) was 52%; on SdiA [2], 50%. Besides, on SdiA [2] (setting [3]), the inhibition at 1 µM was found to be 41 ± 15%. At SdiA [2] (setting [4]), the inhibition at 100 µM amounted to 16 ± 11%.
Consider `O=C(CCC1CCCCC1)N[C@H]1CCOC1=O` [B11], for which the EC50 on SdiA [1] (read-out: EC50) was found to be 50.1 nM. Further, the Emax at SdiA [1] (setting [6]) was determined as 93%. Also, the inhibition at 1 µM on SdiA [2] (setting [3]) was determined as 6 ± 5%. Besides, on SdiA [2] (setting [4]), the inhibition at 100 µM came out at 8 ± 14%.
On to `O=C(CC1CCCC1)N[C@H]1CCOC1=O` [B12], for which, on SdiA [1] (read-out: EC50), the EC50 amounted to 54.7 nM. Further, the Emax at SdiA [1] (setting [6]) turned out to be 93%. The inhibition at 1 µM on SdiA [2] (setting [3]) is 7 ± 7%. Moreover, the inhibition at 100 µM on SdiA [2] (setting [4]) came out at 14 ± 9%.
Take `O=C(Cc1cccc(Cl)c1)N[C@H]1CCOC1=O` [C6]: on SdiA [1] (read-out: EC50), the EC50 was determined as 51.9 nM. Further, the Emax on SdiA [1] (setting [6]) turned out to be 95%. In addition, at SdiA [2] (setting [3]), the inhibition at 1 µM amounted to 9 ± 16%. The inhibition at 100 µM on SdiA [2] (setting [4]) is -20 ± 6%.
Take `O=C(Cc1cccc(Br)c1)N[C@H]1CCOC1=O` [C8]: at SdiA [1] (read-out: EC50), the EC50 is 19.1 nM. In addition, the Emax at SdiA [1] (setting [6]) came out at 96%. Also, on SdiA [2] (setting [3]), the inhibition at 1 µM turned out to be 21 ± 10%. Further, at SdiA [2] (setting [4]), the inhibition at 100 µM was -22 ± 9%.
For `O=C(Cc1ccccc1Br)N[C@H]1CCOC1=O` [C9] the same measures were 63.5 nM, 103%, 9 ± 8% and -48 ± 13%.
Regarding `O=C(Cc1ccc(I)cc1)N[C@H]1CCOC1=O` [C10], at SdiA [1], the EC50 amounted to 47.2 nM and the Emax was determined as 67%. On SdiA [2], the inhibition at 1 µM is 28 ± 6% and the inhibition at 100 µM was found to be 27 ± 13%.
